The values that follow come from BindingDB's records for doi:10.1021/jm7012858 (Wyeth Research, 2008).

Phosphatidylinositol 3-kinase regulatory subunit alpha/4,5-bisphosphate 3-kinase catalytic subunit alpha isoform, sequence (P27986 whole entry, canonical isoform): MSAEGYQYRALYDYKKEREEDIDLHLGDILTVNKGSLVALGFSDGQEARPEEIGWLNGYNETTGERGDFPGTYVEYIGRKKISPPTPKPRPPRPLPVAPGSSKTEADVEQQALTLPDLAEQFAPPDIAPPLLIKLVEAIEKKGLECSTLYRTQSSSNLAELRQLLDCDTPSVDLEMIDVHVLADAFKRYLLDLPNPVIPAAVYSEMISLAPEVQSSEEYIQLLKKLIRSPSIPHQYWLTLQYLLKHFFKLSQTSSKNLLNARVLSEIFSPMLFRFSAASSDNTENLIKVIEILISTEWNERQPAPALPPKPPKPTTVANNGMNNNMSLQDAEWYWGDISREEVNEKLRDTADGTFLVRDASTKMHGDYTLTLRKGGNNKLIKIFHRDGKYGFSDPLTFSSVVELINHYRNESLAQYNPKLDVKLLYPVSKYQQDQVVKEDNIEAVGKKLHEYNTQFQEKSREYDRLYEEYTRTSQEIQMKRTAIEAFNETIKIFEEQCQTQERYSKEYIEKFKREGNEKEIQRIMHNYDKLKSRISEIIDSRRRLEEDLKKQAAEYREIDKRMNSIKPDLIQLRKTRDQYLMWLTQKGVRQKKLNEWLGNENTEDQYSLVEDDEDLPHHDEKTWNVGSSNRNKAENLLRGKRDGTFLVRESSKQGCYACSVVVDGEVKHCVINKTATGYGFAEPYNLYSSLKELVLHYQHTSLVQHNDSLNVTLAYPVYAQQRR
Phosphatidylinositol 3-kinase regulatory subunit alpha/4,5-bisphosphate 3-kinase catalytic subunit alpha isoform, sequence (P42336 whole entry, canonical isoform): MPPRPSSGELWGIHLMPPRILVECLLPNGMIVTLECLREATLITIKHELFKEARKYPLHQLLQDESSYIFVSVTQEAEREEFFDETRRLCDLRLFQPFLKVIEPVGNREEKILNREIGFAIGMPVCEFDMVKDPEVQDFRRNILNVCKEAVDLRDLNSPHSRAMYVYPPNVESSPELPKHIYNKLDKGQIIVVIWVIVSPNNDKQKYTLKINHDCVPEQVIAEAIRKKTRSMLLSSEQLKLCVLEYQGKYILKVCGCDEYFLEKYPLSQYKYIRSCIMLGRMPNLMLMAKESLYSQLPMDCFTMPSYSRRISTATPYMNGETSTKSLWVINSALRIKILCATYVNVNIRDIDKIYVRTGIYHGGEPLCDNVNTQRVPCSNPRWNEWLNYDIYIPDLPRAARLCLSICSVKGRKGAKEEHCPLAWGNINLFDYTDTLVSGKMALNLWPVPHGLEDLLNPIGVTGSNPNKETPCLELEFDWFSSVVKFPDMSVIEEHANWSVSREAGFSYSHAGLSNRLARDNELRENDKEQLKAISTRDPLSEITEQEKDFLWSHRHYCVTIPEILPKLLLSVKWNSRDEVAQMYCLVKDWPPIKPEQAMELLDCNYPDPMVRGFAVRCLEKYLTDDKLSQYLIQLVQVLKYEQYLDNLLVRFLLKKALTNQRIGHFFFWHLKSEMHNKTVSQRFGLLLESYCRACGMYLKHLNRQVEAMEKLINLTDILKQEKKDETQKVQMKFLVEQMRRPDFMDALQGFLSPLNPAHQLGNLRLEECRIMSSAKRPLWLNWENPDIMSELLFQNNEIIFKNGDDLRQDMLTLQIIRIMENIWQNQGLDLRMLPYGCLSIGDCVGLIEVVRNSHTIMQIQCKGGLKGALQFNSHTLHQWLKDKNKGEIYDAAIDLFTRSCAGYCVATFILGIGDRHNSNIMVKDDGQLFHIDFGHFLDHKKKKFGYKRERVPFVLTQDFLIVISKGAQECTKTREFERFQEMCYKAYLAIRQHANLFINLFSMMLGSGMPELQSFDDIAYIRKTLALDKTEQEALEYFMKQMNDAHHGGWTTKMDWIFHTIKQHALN

One assay has as its target Phosphatidylinositol 3-kinase regulatory subunit alpha/4,5-bisphosphate 3-kinase catalytic subunit alpha isoform (Homo sapiens, UniProt P42336). The assay can be described thus: PI3K Inhibition Assay.
Conditions: not given
The procedure: Inhibition of PI3K enzyme activity is measured in a microtiter plate-based fluorescence polarization (FP) assay.
In turn, `COC[C@H]1OC(=O)C(=CN(C)CC(O)CO)C2C(=O)C(=O)C3=C([C@H](OC(C)=O)C[C@@]4(C)C3CC[C@@H]4O)[C@]21C` (stereo partly drawn) [(2R,3S,6E,14S,15S,17R)-6-{[(2,3-dihydroxypropyl)(methyl)amino]methylidene}-8,14-dihydroxy-3-(methoxymethyl)-2,15-dimethyl-5,9-dioxo-4-oxatetracyclo[8.7.0.0^{2,7}.0^{11,15}]heptadeca-1(10),7-dien-17-yl acetate] showed an IC50 of 199 nM.
Still for that read-out and setting: as for `COC[C@H]1OC(=O)C(=CN2CCC(C(=O)OC)CC2)C2C(=O)C(=O)C3=C([C@H](OC(C)=O)C[C@@]4(C)C3CC[C@@H]4O)[C@]21C` (stereo partly drawn) [methyl 1-{[(2R,3S,6E,14S,15S,17R)-17-(acetyloxy)-8,14-dihydroxy-3-(methoxymethyl)-2,15-dimethyl-5,9-dioxo-4-oxatetracyclo[8.7.0.0^{2,7}.0^{11,15}]heptadeca-1(10),7-dien-6-ylidene]methyl}piperidine-4-carboxylate], the figure is 31 nM; as for `COC[C@H]1OC(=O)C(=CN2CCC(c3ccccc3)CC2)C2C(=O)C(=O)C3=C([C@H](OC(C)=O)C[C@@]4(C)C3CC[C@@H]4O)[C@]21C` (stereo partly drawn) [(2R,3S,6E,14S,15S,17R)-8,14-dihydroxy-3-(methoxymethyl)-2,15-dimethyl-5,9-dioxo-6-[(4-phenylpiperidin-1-yl)methylidene]-4-oxatetracyclo[8.7.0.0^{2,7}.0^{11,15}]heptadeca-1(10),7-dien-17-yl acetate], 172 nM.
For the compound `COC[C@H]1OC(=O)C(=CN2CCN(CCCN(C)C)CC2)C2C(=O)C(=O)C3=C([C@H](OC(C)=O)C[C@@]4(C)C3CC[C@@H]4O)[C@]21C` (stereo partly drawn) [(2R,3S,6E,14S,15S,17R)-6-({4-[3-(dimethylamino)propyl]piperazin-1-yl}methylidene)-8,14-dihydroxy-3-(methoxymethyl)-2,15-dimethyl-5,9-dioxo-4-oxatetracyclo[8.7.0.0^{2,7}.0^{11,15}]heptadeca-1(10),7-dien-17-yl acetate], half-maximal inhibition (IC50) required 38 nM.
Turning to `CCN(C=C1C(=O)O[C@H](COC)[C@]2(C)C3=C(C(=O)C(=O)C12)C1CC[C@H](O)[C@@]1(C)C[C@H]3OC(C)=O)CCCN(C)C` (stereo partly drawn) [(2R,3S,6E,14S,15S,17R)-6-({[3-(dimethylamino)propyl](ethyl)amino}methylidene)-8,14-dihydroxy-3-(methoxymethyl)-2,15-dimethyl-5,9-dioxo-4-oxatetracyclo[8.7.0.0^{2,7}.0^{11,15}]heptadeca-1(10),7-dien-17-yl acetate], the 50% inhibitory concentration (IC50) amounted to 12 nM.
Still for that read-out and setting: as for `COC[C@H]1OC(=O)C(=CN2CCC(C(=O)O)CC2)C2C(=O)C(=O)C3=C([C@H](OC(C)=O)C[C@@]4(C)C3CC[C@@H]4O)[C@]21C` (stereo partly drawn) [1-{[(2R,3S,6E,14S,15S,17R)-17-(acetyloxy)-8,14-dihydroxy-3-(methoxymethyl)-2,15-dimethyl-5,9-dioxo-4-oxatetracyclo[8.7.0.0^{2,7}.0^{11,15}]heptadeca-1(10),7-dien-6-ylidene]methyl}piperidine-4-carboxylic acid], the figure is 33 nM; as for `COC[C@H]1OC(=O)C(=CN2CCN(c3ccccc3)CC2)C2C(=O)C(=O)C3=C([C@H](OC(C)=O)C[C@@]4(C)C3CC[C@@H]4O)[C@]21C` (stereo partly drawn) [(2R,3S,6E,14S,15S,17R)-8,14-dihydroxy-3-(methoxymethyl)-2,15-dimethyl-5,9-dioxo-6-[(4-phenylpiperazin-1-yl)methylidene]-4-oxatetracyclo[8.7.0.0^{2,7}.0^{11,15}]heptadeca-1(10),7-dien-17-yl acetate], 56 nM; as for `COC[C@H]1OC(=O)C(=CN(CCC#N)Cc2ccccc2)C2C(=O)C(=O)C3=C([C@H](OC(C)=O)C[C@@]4(C)C3CC[C@@H]4O)[C@]21C` (stereo partly drawn) [(2R,3S,6E,14S,15S,17R)-6-{[benzyl(2-cyanoethyl)amino]methylidene}-8,14-dihydroxy-3-(methoxymethyl)-2,15-dimethyl-5,9-dioxo-4-oxatetracyclo[8.7.0.0^{2,7}.0^{11,15}]heptadeca-1(10),7-dien-17-yl acetate], 444 nM.
On the same count and under the same terms, as for `CCN(C=C1C(=O)O[C@H](COC)[C@]2(C)C3=C(C(=O)C(=O)C12)C1CC[C@H](O)[C@@]1(C)C[C@H]3OC(C)=O)CCN(CC)CC` (stereo partly drawn) [(2R,3S,6E,14S,15S,17R)-6-({[2-(diethylamino)ethyl](ethyl)amino}methylidene)-8,14-dihydroxy-3-(methoxymethyl)-2,15-dimethyl-5,9-dioxo-4-oxatetracyclo[8.7.0.0^{2,7}.0^{11,15}]heptadeca-1(10),7-dien-17-yl acetate], the figure is 24 nM; as for `CCN(C=C1C(=O)O[C@H](COC)[C@]2(C)C3=C(C(=O)C(=O)C12)C1CC[C@H](O)[C@@]1(C)C[C@H]3OC(C)=O)CCN(C)C` (stereo partly drawn) [(2R,3S,6E,14S,15S,17R)-6-({[2-(dimethylamino)ethyl](ethyl)amino}methylidene)-8,14-dihydroxy-3-(methoxymethyl)-2,15-dimethyl-5,9-dioxo-4-oxatetracyclo[8.7.0.0^{2,7}.0^{11,15}]heptadeca-1(10),7-dien-17-yl acetate], 5 nM.
Still for that read-out and setting: the value for `COC[C@H]1OC(=O)C(=CN2CCN(C3CCCCC3)CC2)C2C(=O)C(=O)C3=C([C@H](OC(C)=O)C[C@@]4(C)C3CC[C@@H]4O)[C@]21C` (stereo partly drawn) [(2R,3S,6E,14S,15S,17R)-6-[(4-cyclohexylpiperazin-1-yl)methylidene]-8,14-dihydroxy-3-(methoxymethyl)-2,15-dimethyl-5,9-dioxo-4-oxatetracyclo[8.7.0.0^{2,7}.0^{11,15}]heptadeca-1(10),7-dien-17-yl acetate] was 43 nM; that for `COC[C@H]1OC(=O)C(=CN2CCCCC2)C2C(=O)C(=O)C3=C([C@H](OC(C)=O)C[C@@]4(C)C3CC[C@@H]4O)[C@]21C` (stereo partly drawn) [(2R,3S,6E,14S,15S,17R)-8,14-dihydroxy-3-(methoxymethyl)-2,15-dimethyl-5,9-dioxo-6-(piperidin-1-ylmethylidene)-4-oxatetracyclo[8.7.0.0^{2,7}.0^{11,15}]heptadeca-1(10),7-dien-17-yl acetate] was 104 nM.
Compound `COC[C@H]1OC(=O)C(=CN2CCN(CCN3CCOCC3)CC2)C2C(=O)C(=O)C3=C([C@H](OC(C)=O)C[C@@]4(C)C3CC[C@@H]4O)[C@]21C` (stereo partly drawn) [(2R,3S,6E,14S,15S,17R)-8,14-dihydroxy-3-(methoxymethyl)-2,15-dimethyl-6-({4-[2-(morpholin-4-yl)ethyl]piperazin-1-yl}methylidene)-5,9-dioxo-4-oxatetracyclo[8.7.0.0^{2,7}.0^{11,15}]heptadeca-1(10),7-dien-17-yl acetate] gave an IC50 of 78 nM.
On the same count and under the same terms, as for `COC[C@H]1OC(=O)C(=CN(C)CCCN2CCN(C)CC2)C2C(=O)C(=O)C3=C([C@H](OC(C)=O)C[C@@]4(C)C3CC[C@@H]4O)[C@]21C` (stereo partly drawn) [(2R,3S,6E,14S,15S,17R)-8,14-dihydroxy-3-(methoxymethyl)-2,15-dimethyl-6-({methyl[3-(4-methylpiperazin-1-yl)propyl]amino}methylidene)-5,9-dioxo-4-oxatetracyclo[8.7.0.0^{2,7}.0^{11,15}]heptadeca-1(10),7-dien-17-yl acetate], the figure is 10 nM.

The same assay, now with this note: pH 7.5; 22 °C.
Regarding `CCNC=C1C(=O)O[C@H](COC)[C@]2(C)C3=C(C(=O)C(=O)C12)C1CC[C@H](O)[C@@]1(C)C[C@H]3OC(C)=O` (stereo partly drawn) [(2R,3S,6Z,14S,15S,17R)-6-[(ethylamino)methylidene]-8,14-dihydroxy-3-(methoxymethyl)-2,15-dimethyl-5,9-dioxo-4-oxatetracyclo[8.7.0.0^{2,7}.0^{11,15}]heptadeca-1(10),7-dien-17-yl acetate], the 50% inhibitory concentration (IC50) is greater than 10000 nM.
Still for that read-out and setting: as for `C=CCN(C=C1C(=O)O[C@H](COC)[C@]2(C)C3=C(C(=O)C(=O)C12)C1CCC(=O)[C@@]1(C)C[C@H]3OC(C)=O)CC=C` (stereo partly specified) [PX-866], the figure is 88 nM.
On the same count and under the same terms, as for `COC[C@H]1OC(=O)C(=CN2CCCC2)C2C(=O)C(=O)C3=C([C@H](OC(C)=O)C[C@@]4(C)C3CC[C@@H]4O)[C@]21C` (stereo partly drawn) [(2R,3S,6Z,14S,15S,17R)-8,14-dihydroxy-3-(methoxymethyl)-2,15-dimethyl-5,9-dioxo-6-(pyrrolidin-1-ylmethylidene)-4-oxatetracyclo[8.7.0.0^{2,7}.0^{11,15}]heptadeca-1(10),7-dien-17-yl acetate], the figure is 496 nM.
On to `COC[C@H]1OC(=O)C(=CN(C)C(C)(C)C)C2C(=O)C(=O)C3=C([C@H](OC(C)=O)C[C@@]4(C)C3CC[C@@H]4O)[C@]21C` (stereo partly drawn) [(2R,3S,6Z,14S,15S,17R)-6-{[tert-butyl(methyl)amino]methylidene}-8,14-dihydroxy-3-(methoxymethyl)-2,15-dimethyl-5,9-dioxo-4-oxatetracyclo[8.7.0.0^{2,7}.0^{11,15}]heptadeca-1(10),7-dien-17-yl acetate], for which it took 440 nM to reach half-maximal inhibition (IC50).
The same measure, in the same setting: as for `COC[C@H]1OC(=O)C(=CN(CCN(C)C)Cc2ccccc2)C2C(=O)C(=O)C3=C([C@H](OC(C)=O)C[C@@]4(C)C3CC[C@@H]4O)[C@]21C` (stereo partly drawn) [(2R,3S,6Z,14S,15S,17R)-6-({benzyl[2-(dimethylamino)ethyl]amino}methylidene)-8,14-dihydroxy-3-(methoxymethyl)-2,15-dimethyl-5,9-dioxo-4-oxatetracyclo[8.7.0.0^{2,7}.0^{11,15}]heptadeca-1(10),7-dien-17-yl acetate], the figure is 66 nM; as for `CCN(C=C1C(=O)O[C@H](COC)[C@]2(C)C3=C(C(=O)C(=O)C12)C1CC[C@H](O)[C@@]1(C)C[C@H]3OC(C)=O)CC` (stereo partly drawn) [(2R,3S,6Z,14S,15S,17R)-6-[(diethylamino)methylidene]-8,14-dihydroxy-3-(methoxymethyl)-2,15-dimethyl-5,9-dioxo-4-oxatetracyclo[8.7.0.0^{2,7}.0^{11,15}]heptadeca-1(10),7-dien-17-yl acetate], 382 nM.
The compound `COC[C@H]1OC(=O)C(=CNC(C)(C)C)C2C(=O)C(=O)C3=C([C@H](OC(C)=O)C[C@@]4(C)C3CC[C@@H]4O)[C@]21C` (stereo partly drawn) [(2R,3S,6Z,14S,15S,17R)-6-[(tert-butylamino)methylidene]-8,14-dihydroxy-3-(methoxymethyl)-2,15-dimethyl-5,9-dioxo-4-oxatetracyclo[8.7.0.0^{2,7}.0^{11,15}]heptadeca-1(10),7-dien-17-yl acetate] showed an IC50 greater than 10000 nM.

A word on the IC50: it is the concentration needed to halve the response being measured. A lower IC50 goes with greater potency.
